Experimental data: patent publication US6974820B2, “Methods for treating urinary incontinence and other disorders using trospium” (Bridge Pharma, Inc., priority 2002, dated 2005)
Where two headings read alike, the source gives them in different places.

How the values were obtained:
[1] = biological target: T1, CYP 2D6 (Homo sapiens, UniProt P10635)
[2] = test system: QTc interval of the ECG; experiment: Cardiac side effects: QTc interval of the ECG in anesthetized guinea pigs; details: for Prolongation of the QTc interval of the ECG (in words): intravenous infusion; for ΔQTc (%): intravenous infusion over 30 min
[3] = biological target: T2, human recombinant muscarinic receptor M-1 (Homo sapiens, UniProt P11229); experiment: biochemical; type: binding
T2 construct: expressed in transfected cells; host or cells: SF9 insect cells (membranes)
T2 sequence (P11229 1-460): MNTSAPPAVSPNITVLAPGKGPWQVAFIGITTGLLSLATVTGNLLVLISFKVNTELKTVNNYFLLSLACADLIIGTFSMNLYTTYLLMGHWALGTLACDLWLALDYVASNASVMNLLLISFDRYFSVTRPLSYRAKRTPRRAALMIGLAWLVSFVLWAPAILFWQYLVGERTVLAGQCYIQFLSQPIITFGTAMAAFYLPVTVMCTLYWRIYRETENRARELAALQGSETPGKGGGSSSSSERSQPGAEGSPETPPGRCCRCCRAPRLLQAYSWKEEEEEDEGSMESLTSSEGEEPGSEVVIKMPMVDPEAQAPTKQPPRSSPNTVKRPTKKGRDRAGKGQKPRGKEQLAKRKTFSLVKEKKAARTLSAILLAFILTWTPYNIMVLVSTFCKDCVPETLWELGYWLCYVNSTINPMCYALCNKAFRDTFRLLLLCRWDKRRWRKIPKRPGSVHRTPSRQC

[4] = biological target: T3, human recombinant muscarinic receptor M-4 (Homo sapiens, UniProt P08173); type: binding
T3 construct: expressed in transfected cells; host or cells: SF9 insect cells (membranes)
T3 sequence (P08173 1-479): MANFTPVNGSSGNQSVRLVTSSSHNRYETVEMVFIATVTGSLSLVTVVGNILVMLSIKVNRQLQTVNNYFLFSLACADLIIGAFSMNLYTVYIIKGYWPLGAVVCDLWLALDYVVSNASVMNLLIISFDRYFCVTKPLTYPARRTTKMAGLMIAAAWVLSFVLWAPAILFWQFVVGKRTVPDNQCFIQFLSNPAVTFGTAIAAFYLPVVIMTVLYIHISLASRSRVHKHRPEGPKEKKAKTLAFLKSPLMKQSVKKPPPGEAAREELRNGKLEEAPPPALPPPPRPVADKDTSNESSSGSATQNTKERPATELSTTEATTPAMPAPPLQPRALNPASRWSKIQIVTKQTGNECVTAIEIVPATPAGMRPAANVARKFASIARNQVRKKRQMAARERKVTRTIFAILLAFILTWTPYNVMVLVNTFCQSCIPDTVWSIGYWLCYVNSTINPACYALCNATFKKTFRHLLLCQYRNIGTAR

[5] = biological target: T1, CYP 2D6; experiment: biochemical
[6] = biological target: T4, human recombinant muscarinic receptor M-3 (Homo sapiens, UniProt P20309); experiment: biochemical; type: binding
T4 construct: expressed in transfected cells; host or cells: SF9 insect cells (membranes)
T4 sequence (P20309 whole entry): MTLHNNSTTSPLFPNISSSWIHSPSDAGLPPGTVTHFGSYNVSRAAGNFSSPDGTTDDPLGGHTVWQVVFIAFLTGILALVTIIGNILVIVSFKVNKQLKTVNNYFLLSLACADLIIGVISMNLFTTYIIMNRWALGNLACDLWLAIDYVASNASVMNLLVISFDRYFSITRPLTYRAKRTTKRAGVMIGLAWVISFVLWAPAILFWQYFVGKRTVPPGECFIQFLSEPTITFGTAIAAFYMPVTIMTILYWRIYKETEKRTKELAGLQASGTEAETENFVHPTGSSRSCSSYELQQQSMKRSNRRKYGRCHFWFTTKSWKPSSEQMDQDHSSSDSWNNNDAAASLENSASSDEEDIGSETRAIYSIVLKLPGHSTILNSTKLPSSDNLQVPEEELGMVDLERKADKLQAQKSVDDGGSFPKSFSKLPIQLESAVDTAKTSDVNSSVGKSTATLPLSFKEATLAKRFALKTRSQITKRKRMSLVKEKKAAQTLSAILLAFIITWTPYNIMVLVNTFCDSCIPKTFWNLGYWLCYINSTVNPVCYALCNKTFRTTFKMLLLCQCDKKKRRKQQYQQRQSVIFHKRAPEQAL

T1 sequence (P10635 whole entry, the tested form may be a part): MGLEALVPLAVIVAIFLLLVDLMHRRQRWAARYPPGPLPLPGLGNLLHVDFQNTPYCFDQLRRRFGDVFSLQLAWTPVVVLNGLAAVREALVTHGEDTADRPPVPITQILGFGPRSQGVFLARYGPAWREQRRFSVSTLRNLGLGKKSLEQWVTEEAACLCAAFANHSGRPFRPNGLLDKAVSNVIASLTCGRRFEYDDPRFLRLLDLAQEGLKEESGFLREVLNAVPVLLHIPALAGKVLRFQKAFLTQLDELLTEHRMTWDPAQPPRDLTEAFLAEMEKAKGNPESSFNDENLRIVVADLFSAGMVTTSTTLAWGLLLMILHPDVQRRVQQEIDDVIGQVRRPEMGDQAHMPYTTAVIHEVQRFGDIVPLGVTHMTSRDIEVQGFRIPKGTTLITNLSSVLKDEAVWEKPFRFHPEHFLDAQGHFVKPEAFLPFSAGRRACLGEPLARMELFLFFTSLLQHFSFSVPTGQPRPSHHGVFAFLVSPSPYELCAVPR

Compound | Inhibition of CYP 2D6 isoenzyme metabolism (in words) [1] | Prolongation of the QTc interval of the ECG (in words) [2] | ΔQTc (%) [2] | Ki [3] | Ki ([4]; membranes of SF9 cells expressing human recombinant receptor, read-out: Affinity (negative logarithm of the dissociation constant Ki) M-4 (converted)) | Ki [4] | IC50 [5] | Ki [6]
CCN(CC)CC#CCOC(=O)C(O)(c1ccccc1)C1CCCCC1 (stereo not shown) [Oxybutynin] | potently inhibit | statistically significant prolongation | +12 ± 2% | – | – | – | – | –
CC(CC(c1ccccc1)c1ccccc1)NC(C)(C)C (stereo not shown) [Terodiline] | – | statistically significant prolongation | +11 ± 1% | – | – | – | – | –
Cc1ccc(O)c([C@H](CCN(C(C)C)C(C)C)c2ccccc2)c1 [Tolterodine] | – | statistically significant prolongation | +16 ± 1% | 1.58 nM | 20 nM | – | – | –
O=C(O[C@H]1C[C@H]2CC[C@@H](C1)[N+]21CCCC1)C(O)(c1ccccc1)c1ccccc1 [Trospium, 3α-hydroxy-spiro[1αH,5αH-nortropane-8,1′-pyrrolidinium] chloride benzilate] | – | no effects | −2 ± 1% | 0.794 nM | – | 1 nM | ~20000 nM | 0.501 nM
CC(C)(C)c1ccc(C(O)CCCN2CCC(C(O)(c3ccccc3)c3ccccc3)CC2)cc1 (stereo not shown) [terfenadine] | – | caused QT-prolongation | – | – | – | – | – | –
